Assay results reported in PubChem BioAssay AID248 (DTP/NCI, 2004).
“And” between values parts separate entries of the source, which are not always exact repeats. Equal values may be shown once. Toxic doses and inconclusive results are not listed. Rule as the data show it: active = T/C of 150% or more; inactive = T/C below 125%.

Tested on: L1210 leukemia ip in BDF1 mice, survival T/C
Test: NCI In Vivo Anticancer Drug Screen. Data for tumor model L1210 Leukemia (intraperitoneal) in B6D2F1 (BDF1) mice
Details: endpoint: mean survival time, higher = longer survival
How it was run: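 Read-out is survival time, reported as the treated-group measurement over the vehicle-control measurement.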

[1] = dose: 100.0 mg/kg/injection, schedule: Q01DX009 (ip), vehicle: saline with Tween-80
[2] = dose: 100.0 mg/kg/injection, schedule: Q04DX003 (ip), vehicle: saline with Tween-80
[3] = dose: 200.0 mg/kg/injection, schedule: Q01DX009 (ip), vehicle: saline with Tween-80
[4] = dose: 200.0 mg/kg/injection, schedule: Q04DX003 (ip), vehicle: saline with Tween-80
[5] = dose: 400.0 mg/kg/injection, schedule: Q01DX009 (ip), vehicle: saline with Tween-80
[6] = dose: 400.0 mg/kg/injection, schedule: Q04DX003 (ip), vehicle: saline with Tween-80
[7] = dose: 25.0 mg/kg/injection, schedule: Q01DX009 (ip), vehicle: saline
[8] = dose: 50.0 mg/kg/injection, schedule: Q01DX009 (ip), vehicle: saline
[9] = dose: 100.0 mg/kg/injection, schedule: Q01DX009 (ip), vehicle: saline

Measured: T/C

Cc1n[nH]c(=O)[nH]c1=O
inactive: dose: 3.0 mg/kg/injection, schedule: Q01DX009 (ip), vehicle: saline 95 % of control | dose: 6.0 mg/kg/injection, schedule: Q01DX009 (ip), vehicle: saline 93 % of control | dose: 12.0 mg/kg/injection, schedule: Q01DX009 (ip), vehicle: saline 93 % of control | dose: 24.0 mg/kg/injection, schedule: Q01DX009 (ip), vehicle: saline 93 % of control | dose: 48.0 mg/kg/injection, schedule: Q01DX009 (ip), vehicle: saline 97 % of control | dose: 67.5 mg/kg/injection, schedule: Q01DX Z (ip), vehicle: saline 96 % of control | dose: 125.0 mg/kg/injection, schedule: Q01DX Z (ip), vehicle: saline 105 % of control | dose: 200.0 mg/kg/injection, schedule: Q01DX001 (ip), vehicle: acetone 97 % of control | dose: 250.0 mg/kg/injection, schedule: Q01DX Z (ip), vehicle: saline 96 % of control | dose: 400.0 mg/kg/injection, schedule: Q01DX001 (ip), vehicle: acetone 103 % of control | dose: 500.0 mg/kg/injection, schedule: Q01DX Z (ip), vehicle: saline 105 % of control | dose: 800.0 mg/kg/injection, schedule: Q01DX001 (ip), vehicle: acetone 98 % of control

c1ccc(OCC2CO2)cc1 (stereo unspecified)
inactive: dose: 50.0 mg/kg/injection, schedule: Q01DX001 (ip), vehicle: carboxymethylcellulose (CMC) 100 % of control | dose: 100.0 mg/kg/injection, schedule: Q01DX001 (ip), vehicle: carboxymethylcellulose (CMC) 100 % of control | [1] 96 % of control | [2] 95 % of control | dose: 200.0 mg/kg/injection, schedule: Q01DX001 (ip), vehicle: carboxymethylcellulose (CMC) 105 % of control | [3] 93 % of control | [4] 97 % of control | dose: 400.0 mg/kg/injection, schedule: Q01DX001 (ip), vehicle: carboxymethylcellulose (CMC) 97 % of control | [5] 98 % of control | [6] 97 % of control

N#CC12OC1(C#N)C(=O)C1(Cl)C3C=CC(C3)C1(Cl)C2=O (stereo unspecified)
inactive: dose: 12.5 mg/kg/injection, schedule: Q01DX009 (ip), vehicle: saline 102 % of control | [7] 102 % of control | [8] 96 % of control and 106 % of control

OCCc1ccccc1
inactive: [1] 96 % of control | [3] 100 % of control | [5] 99 % of control

CCCCNCCO
inactive: [7] 96 % of control | [8] 100 % of control | [9] 115 % of control

c1ccc2c(c1)CCc1ccccc1CC2
inactive: dose: 100.0 mg/kg/injection, schedule: Q01DX009 (ip), vehicle: Klucel (hydroxypropylcellulose) (HPC) 93 % of control | dose: 200.0 mg/kg/injection, schedule: Q01DX009 (ip), vehicle: Klucel (hydroxypropylcellulose) (HPC) 96 % of control | dose: 400.0 mg/kg/injection, schedule: Q01DX009 (ip), vehicle: Klucel (hydroxypropylcellulose) (HPC) 90 % of control

COc1ccc(/C=N/NC(N)=S)cc1
inactive: dose: 32.0 mg/kg/injection, schedule: Q01DX009 (ip), vehicle: saline 101 % of control and 92 % of control | dose: 32.0 mg/kg/injection, schedule: Q01DX010 (ip), vehicle: saline 97 % of control and 91 % of control | dose: 64.0 mg/kg/injection, schedule: Q01DX009 (ip), vehicle: saline 98 % of control and 100 % of control | dose: 64.0 mg/kg/injection, schedule: Q01DX010 (ip), vehicle: saline 96 % of control and 91 % of control | dose: 64.0 mg/kg/injection, schedule: Q01DX010 (iv), vehicle: saline 92 % of control | [9] 104 % of control | [2] 95 % of control | dose: 128.0 mg/kg/injection, schedule: Q01DX009 (ip), vehicle: saline 97 % of control and 102 % of control | dose: 128.0 mg/kg/injection, schedule: Q01DX010 (ip), vehicle: saline 94 % of control and 95 % of control | dose: 128.0 mg/kg/injection, schedule: Q01DX010 (iv), vehicle: saline 92 % of control | dose: 200.0 mg/kg/injection, schedule: Q01DX001 (ip), vehicle: saline 94 % of control | dose: 200.0 mg/kg/injection, schedule: Q01DX009 (ip), vehicle: acetone 95 % of control | dose: 200.0 mg/kg/injection, schedule: Q01DX009 (ip), vehicle: saline 100 % of control | [4] 95 % of control | dose: 256.0 mg/kg/injection, schedule: Q01DX009 (ip), vehicle: saline 101 % of control and 109 % of control | dose: 256.0 mg/kg/injection, schedule: Q01DX010 (ip), vehicle: saline 97 % of control and 90 % of control | dose: 256.0 mg/kg/injection, schedule: Q01DX010 (iv), vehicle: saline 102 % of control | dose: 400.0 mg/kg/injection, schedule: Q01DX001 (ip), vehicle: saline 100 % of control | dose: 400.0 mg/kg/injection, schedule: Q01DX009 (ip), vehicle: acetone 88 % of control | dose: 400.0 mg/kg/injection, schedule: Q01DX009 (ip), vehicle: saline 98 % of control | [6] 102 % of control | dose: 800.0 mg/kg/injection, schedule: Q01DX001 (ip), vehicle: saline 96 % of control
